The results in this text go back to patent US10179782B2, “Substituted sulfonamide compounds” (Genentech, Inc., priority 2016, dated 2019).

The structures appear in SMILES notation.

The target of this assay is T1, human TRPA1 (Homo sapiens, UniProt O75762).
T1 construct: expressed in transfected cells; host or cells: CHO cells
Briefly: TRPA1 FLIPR Tetra calcium influx assay in CHO cells (block of cinnamaldehyde-induced calcium influx). The settings on record: Table 2; CHO cells expressing TRPA1; agonist cinnamaldehyde 75 uM; 20 min compound incubation; Hill coefficient fixed to 1.5; read-out: hTRPA1 CHO Ca2+ AUC EVO (IC50). The class given is cell-based. The procedure, abridged: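 IC50s were derived from a Hill fit with n fixed at 1.5, using inhibition of FLIPR Tetra calcium signals in dye-loaded TRPA1-CHO cells. Cells sat with compound 20 min at room temperature in HBSS with 20 mM HEPES (pH 7.4) and 0.02% BSA, then were challenged with cinnamaldehyde near EC80: 75 µM human, 45 µM rat.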

T1 sequence (O75762 whole entry): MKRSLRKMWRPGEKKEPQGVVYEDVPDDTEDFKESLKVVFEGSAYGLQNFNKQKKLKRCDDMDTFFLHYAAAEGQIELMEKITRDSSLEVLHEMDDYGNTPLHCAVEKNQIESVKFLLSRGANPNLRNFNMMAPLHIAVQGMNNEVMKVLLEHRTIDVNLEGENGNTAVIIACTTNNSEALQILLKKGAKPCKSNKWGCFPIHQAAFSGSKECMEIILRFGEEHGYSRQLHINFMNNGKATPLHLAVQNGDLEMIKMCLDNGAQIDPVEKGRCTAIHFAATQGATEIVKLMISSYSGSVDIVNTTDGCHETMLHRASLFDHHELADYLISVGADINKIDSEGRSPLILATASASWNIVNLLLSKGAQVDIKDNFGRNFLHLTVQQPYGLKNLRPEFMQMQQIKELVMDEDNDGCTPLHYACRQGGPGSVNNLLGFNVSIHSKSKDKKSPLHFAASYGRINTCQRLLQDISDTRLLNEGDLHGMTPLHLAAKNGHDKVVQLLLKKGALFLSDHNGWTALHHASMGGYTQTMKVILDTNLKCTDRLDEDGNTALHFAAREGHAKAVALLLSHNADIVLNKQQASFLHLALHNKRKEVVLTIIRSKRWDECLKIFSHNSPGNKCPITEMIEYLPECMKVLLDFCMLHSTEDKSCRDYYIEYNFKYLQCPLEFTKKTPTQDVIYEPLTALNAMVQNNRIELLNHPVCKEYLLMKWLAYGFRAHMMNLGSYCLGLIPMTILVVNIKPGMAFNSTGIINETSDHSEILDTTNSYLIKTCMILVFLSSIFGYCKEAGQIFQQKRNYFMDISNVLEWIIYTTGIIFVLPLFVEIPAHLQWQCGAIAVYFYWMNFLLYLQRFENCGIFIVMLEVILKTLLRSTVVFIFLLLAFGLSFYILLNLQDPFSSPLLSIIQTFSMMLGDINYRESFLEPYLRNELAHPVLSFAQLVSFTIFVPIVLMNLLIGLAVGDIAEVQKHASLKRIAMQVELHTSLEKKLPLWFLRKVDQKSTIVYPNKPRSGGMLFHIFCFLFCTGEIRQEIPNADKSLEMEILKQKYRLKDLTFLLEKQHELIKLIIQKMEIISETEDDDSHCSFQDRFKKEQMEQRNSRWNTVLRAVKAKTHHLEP

`C[C@H]1CC[C@@H](C(=O)NCc2cc(Cl)nc(-c3cnc(C(F)(F)F)nc3)c2)N1S(=O)(=O)c1ccc(F)cc1` [Example 3, (2S,5S)—N-([2-chloro-6-[2-(trifluoromethyl)pyrimidin-5-yl]pyridin-4-yl]methyl)-1-[(4-fluorobenzene)sulfonyl]-5-methylpyrrolidine-2-carboxamide]: the IC50 is 1.12 nM. With `C[C@H]1[C@H](F)C[C@@H](C(=O)NCc2cc(-c3cnc(C(F)(F)F)nc3)ncc2F)N1S(=O)(=O)c1ccccc1` [Example 27, (2S,4R,5S)-4-fluoro-N-((5-fluoro-2-(2-(trifluoromethyl)pyrimidin-5-yl)pyridin-4-yl)methyl)-5-methyl-1-(phenylsulfonyl)pyrrolidine-2-carboxamide], the IC50 was found to be 46.4 nM.

As for `C[C@H]1[C@H](F)C[C@@H](C(=O)NCc2cc(-c3cnc(C(F)(F)F)nc3)ncc2F)N1S(=O)(=O)c1cccc(Cl)c1` (stereo in doubt) [Example 91, (2S,4R,5S)-1-(3-chlorophenyl)sulfonyl-4-fluoro-N-[[5-fluoro-2-[2-(trifluoromethyl)pyrimidin-5-yl]-4-pyridyl]methyl]-5-methyl-pyrrolidine-2-carboxamide], the IC50 was determined as 20 nM.

In the case of `C[C@H]1[C@H](F)C[C@@H](C(=O)NCc2cc(-c3cnc(C(F)(F)F)nc3)ncc2F)N1S(=O)(=O)c1cccc(F)c1` [Example 41, (2S,4R,5S)-4-fluoro-N-((5-fluoro-2-(2-(trifluoromethyl)pyrimidin-5-yl)pyridin-4-yl)methyl)-1-(3-fluorophenylsulfonyl)-5-methylpyrrolidine-2-carboxamide], the IC50 worked out at 40.5 nM. For `O=C(NCc1cc(N2CCC(OC(F)(F)F)CC2)ncc1F)[C@@H]1C[C@@H](F)CN1S(=O)(=O)c1ccc(F)cc1` [Example 57, (2S,4R)-4-fluoro-1-(4-fluorophenyl)sulfonyl-N-[[5-fluoro-2-[4-(trifluoromethoxy)-1-piperidyl]-4-pyridyl]methyl]pyrrolidine-2-carboxamide] the value was 49.4 nM. For `C[C@H]1[C@H](F)C[C@@H](C(=O)NCc2cc(N3CC(OC(F)(F)F)C3)ncn2)N1S(=O)(=O)c1ccc(F)cc1` [Example 25, (2S,4R,5S)-4-fluoro-1-(4-fluorophenylsulfonyl)-5-methyl-N-((6-(3-(trifluoromethoxy)azetidin-1-yl)pyrimidin-4-yl)methyl)pyrrolidine-2-carboxamide] the value was 2400 nM; for `O=C(NCc1cc(-c2cnc(C(F)(F)F)nc2)nc(C2CC2)n1)[C@@H]1[C@H]2C[C@H]2CN1S(=O)(=O)c1ccc(F)cc1` [Example 151, (1S,2S,5R)-N-[[2-cyclopropyl-6-[2-(trifluoromethyl)pyrimidin-5-yl]pyrimidin-4-yl]-methyl]-3-(4-fluorophenyl)sulfonyl-3-azabicyclo[3.1.0]hexane-2-carboxamide], 1 nM; for `C[C@H]1[C@H](F)C[C@@H](C(=O)NCc2cc(-c3cnc(C(F)(F)F)nc3)cnc2C(F)(F)F)N1S(=O)(=O)c1ccc(F)cc1` [Example 152, (2S,4R,5S)-4-fluoro-1-(4-fluorophenyl)sulfonyl-5-methyl-N-[[2-(trifluoromethyl)-5-[2-(trifluoromethyl)pyrimidin-5-yl]-3-pyridyl]methyl]pyrrolidine-2-carboxamide], 3.03 nM. The figure for `C[C@H]1CC[C@@H](C(=O)NCc2cc(-c3cnc(C(F)(F)F)nc3)nc(-c3cnc(C(F)(F)F)nc3)c2)N1S(=O)(=O)c1ccc(F)cc1` [Example 11, (2S,5S)-N-[[2,6-bis[2-(trifluoromethyl)pyrimidin-5-yl]-4-pyridyl]methyl]-1-(4-fluorophenyl)sulfonyl-5-methyl-pyrrolidine-2-carboxamide] is 3.17 nM; for `C[C@H]1[C@H](F)C[C@@H](C(=O)NCc2cc(-c3cnc(C(F)(F)F)nc3)nc(C(F)(F)F)n2)N1S(=O)(=O)c1ccc(F)cc1` [Example 108, (2S,4R,5S)-4-fluoro-1-(4-fluorophenyl)sulfonyl-5-methyl-N-[[2-(trifluoromethyl)-6-[2-(trifluoromethyl)pyrimidin-5-yl]pyrimidin-4-yl]methyl]pyrrolidine-2-carboxamide] it is 2 nM; for `C[C@H]1[C@H](F)C[C@@H](C(=O)NCc2cc(-c3cnc(C(F)(F)F)nc3)ncc2F)N1S(=O)(=O)c1ccc(Br)cc1` [Example 89, (2S,4R,5S)-1-(4-bromophenyl)sulfonyl-4-fluoro-N-[[5-fluoro-2-[2-(trifluoromethyl)pyrimidin-5-yl]-4-pyridyl]methyl]-5-methyl-pyrrolidine-2-carboxamide] it is 7.08 nM. In the case of `O=C(NCc1cc(-c2cnc(C(F)(F)F)nc2)nc(C2CC2)c1)[C@@H]1C[C@@H](F)CN1S(=O)(=O)c1ccc(F)cc1` [Example 67, (2S,4R)-N-[[2-cyclopropyl-6-[2-(trifluoromethyl)pyrimidin-5-yl]-4-pyridyl]methyl]-4-fluoro-1-(4-fluorophenyl)sulfonyl-pyrrolidine-2-carboxamide], the IC50 amounted to 65.1 nM. As for `O=C(NCc1ccc(F)c(-c2cnc(C(F)(F)F)nc2)c1)[C@@H]1[C@@H]2[C@H](CN1S(=O)(=O)c1ccc(F)cc1)C2(F)F` [Example 69, (1R,4S,5S)-6,6-difluoro-3-(4-fluorophenyl)sulfonyl-N-[[4-fluoro-3-[2-(trifluoromethyl)pyrimidin-5-yl]phenyl]methyl]-3-azabicyclo[3.1.0]hexane-4-carboxamide], the IC50 was found to be 45.7 nM. The figure for `C[C@H]1[C@H](F)C[C@@H](C(=O)NCc2cc(-c3cnc(C(F)(F)F)nc3)ncc2F)N1S(=O)(=O)c1ccc(F)c(F)c1` [Example 28, (2S,4R,5S)-1-(3,4-difluorophenylsulfonyl)-4-fluoro-N-((5-fluoro-2-(2-(trifluoromethyl)pyrimidin-5-yl)pyridin-4-yl)methyl)-5-methylpyrrolidine-2-carboxamide] is 6.96 nM; for `C[C@H]1[C@H](F)C[C@@H](C(=O)NCc2cc(-c3cnc(C4CC4)nc3)ncc2F)N1S(=O)(=O)c1ccc(F)cc1` [Example 141, (2S,4R,5S)-N-[[2-(2-cyclopropylpyrimidin-5-yl)-5-fluoro-4-pyridyl]methyl]-4-fluoro-1-(4-fluorophenyl)sulfonyl-5-methyl-pyrrolidine-2-carboxamide] it is 20.4 nM; for `C[C@H]1[C@H](F)C[C@@H](C(=O)NCc2cc(OCc3ccc(F)cn3)c(F)cn2)N1S(=O)(=O)c1ccc(F)cc1` [Example 47, (2S,4R,5S)-4-fluoro-N-((5-fluoro-4-((5-fluoropyridin-2-yl)methoxy)pyridin-2-yl)methyl)-1-(4-fluorophenylsulfonyl)-5-methylpyrrolidine-2-carboxamide] it is 1900 nM. For `C[C@H]1[C@H](C#N)C[C@@H](C(=O)NCc2cc(-c3cnc(C(F)(F)F)nc3)ncc2F)N1S(=O)(=O)c1ccc(F)cc1` [Example 84, (2S,4R,5S)-4-cyano-1-(4-fluorophenyl)sulfonyl-N-[[5-fluoro-2-[2-(trifluoromethyl)pyrimidin-5-yl]-4-pyridyl]methyl]-5-methyl-pyrrolidine-2-carboxamide] the value was 65.3 nM; for `C[C@H]1[C@H](F)C[C@@H](C(=O)NCc2cc(-c3ccc(C(F)(F)F)nc3)ncc2C(F)(F)F)N1S(=O)(=O)c1ccc(F)cc1` [Example 115, (2S,4R,5S)-4-fluoro-1-(4-fluorophenyl)sulfonyl-5-methyl-N-[[5-(trifluoromethyl)-2-[6-(trifluoromethyl)-3-pyridyl]-4-pyridyl]methyl]pyrrolidine-2-carboxamide], 1.34 nM.

Broadly, the IC50 is the concentration that inhibits the measured activity by half.
